Columns and labels:
[1] = target: T1, recombinant human Estrogen Receptor alpha ligand binding domain, residues 307-554 (ER alpha-LBD (GST)) (Homo sapiens, UniProt P03372); assay: ERα binding assay (LanthaScreen TR-FRET competition); conditions: TR-FRET competition with Fluormone ES2 tracer, 4 hours at room temperature; single experiment or average of two or more
T1 construct: made in house
T1 sequence (P03372 307-554): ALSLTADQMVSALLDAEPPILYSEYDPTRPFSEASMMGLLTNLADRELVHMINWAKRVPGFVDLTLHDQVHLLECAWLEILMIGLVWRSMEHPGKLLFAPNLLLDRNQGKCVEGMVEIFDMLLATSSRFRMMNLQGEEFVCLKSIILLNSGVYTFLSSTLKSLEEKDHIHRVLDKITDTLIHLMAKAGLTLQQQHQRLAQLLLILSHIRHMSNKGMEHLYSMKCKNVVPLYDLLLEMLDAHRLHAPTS

[2] = target: T2, Estrogen Receptor (ERα) in MCF-7 human ductal carcinoma breast cell line (Homo sapiens, UniProt P03372); assay: MCF-7 ER degradation assay (cell based immuno-fluorescence); conditions: MCF-7 cells; for DC50: 18-22 hours incubation, 50% reduction of ERα expression, single experiment or average of two or more, read-out: MCF-7 ER degradation IC50
T2 construct: endogenous in cells; host or cells: MCF-7
T2 sequence (P03372 1-595): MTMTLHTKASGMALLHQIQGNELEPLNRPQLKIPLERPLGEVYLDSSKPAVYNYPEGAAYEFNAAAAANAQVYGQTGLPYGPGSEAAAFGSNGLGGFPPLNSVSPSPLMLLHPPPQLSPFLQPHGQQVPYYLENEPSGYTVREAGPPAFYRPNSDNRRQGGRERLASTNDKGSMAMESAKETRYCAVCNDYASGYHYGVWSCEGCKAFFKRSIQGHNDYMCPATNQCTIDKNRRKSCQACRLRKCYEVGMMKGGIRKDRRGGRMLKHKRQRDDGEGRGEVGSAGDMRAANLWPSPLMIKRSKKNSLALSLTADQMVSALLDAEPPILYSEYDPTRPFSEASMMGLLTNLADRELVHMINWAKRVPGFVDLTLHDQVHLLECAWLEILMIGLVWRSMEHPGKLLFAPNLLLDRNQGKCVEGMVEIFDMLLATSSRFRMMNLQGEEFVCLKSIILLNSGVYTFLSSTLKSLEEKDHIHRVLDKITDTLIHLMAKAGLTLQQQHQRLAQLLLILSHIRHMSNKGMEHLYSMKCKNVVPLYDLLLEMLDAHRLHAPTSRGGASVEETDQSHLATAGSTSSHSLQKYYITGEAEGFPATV
Method in brief: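 MCF-7 human ductal carcinoma breast cells were seeded at 3.75×10^4 cells per mL (40 μL per well) in 384 well plates with phenol red free DMEM containing 2 mM L-Glutamine and 5% (v/v) Charcoal/Dextran treated foetal calf serum. After overnight culture, compounds were acoustically dispensed, incubated 18-22 hours, then cells were formaldehyde-fixed and immunostained for ERα.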

Structure (SMILES) | IC50 [1] [nM] | DC50 [2] [nM] | ER degradation ≥ 90% at 0.3 μM ([2]; 0.3 μM, ER degradation by fulvestrant at 0.3 μM is defined as 100%)
Cc1ncsc1-c1ccc([C@H](CN(C)C)NC(=O)[C@@H]2C[C@@H](O)CN2C(=O)[C@@H](NC(=O)COCCOCCOCCOc2cc(F)c([C@@H]3c4[nH]c5ccccc5c4C[C@@H](C)N3CC(C)(C)F)c(F)c2)C(C)(C)C)cc1 [Example 104, (2S,4R)-1-[(2S)-2-[[2-[2-[2-[2-[3,5-Difluoro-4-[(1R,3R)-2-(2-fluoro-2-methyl-propyl)-3-methyl-1,3,4,9-tetrahydropyrido[3,4-b]indol-1-yl]phenoxy]ethoxy]ethoxy]ethoxy]acetyl]amino]-3,3-dimethyl-butanoyl]-N-[(1R)-2-(dimethylamino)-1-[4-(4-methylthiazol-5-yl)phenyl]ethyl]-4-hydroxy-pyrrolidine-2-carboxamide] | 4.6 | 54 | –
Cc1ncsc1-c1ccc(CNC(=O)[C@@H]2C[C@@H](O)CN2C(=O)[C@@H](NC(=O)CCN2CCN(CCCCOc3cc(F)c([C@@H]4c5[nH]c6ccccc6c5C[C@@H](C)N4CC(C)(C)F)c(F)c3)CC2)C(C)(C)C)cc1 [Example 98, (2S,4R)-1-((S)-2-(3-(4-(4-(3,5-Difluoro-4-((1R,3R)-2-(2-fluoro-2-methylpropyl)-3-methyl-2,3,4,9-tetrahydro-1H-pyrido[3,4-b]indol-1-yl)phenoxy)butyl)piperazin-1-yl)propanamido)-3,3-dimethylbutanoyl)-4-hydroxy-N-(4-(4-methylthiazol-5-yl)benzyl)pyrrolidine-2-carboxamide] | 0.6 | 0.4 | –
Cc1ncsc1-c1ccc([C@H](C)NC(=O)[C@@H]2C[C@@H](O)CN2C(=O)[C@@H](NC(=O)COCCCOCCCCOc2cc(F)c([C@@H]3c4[nH]c5ccccc5c4C[C@@H](C)N3CC(C)(C)F)c(F)c2)C(C)(C)C)cc1 [Example 155, (2S,4R)-1-((S)-2-(2-(3-(4-(3,5-Difluoro-4-((1R,3R)-2-(2-fluoro-2-methylpropyl)-3-methyl-2,3,4,9-tetrahydro-1H-pyrido[3,4-b]indol-1-yl)phenoxy)butoxy)propoxy)acetamido)-3,3-dimethylbutanoyl)-4-hydroxy-N—((S)-1-(4-(4-methylthiazol-5-yl)phenyl)ethyl)pyrrolidine-2-carboxamide] | 0.3 | 0.7 | –
Cc1ncsc1-c1ccc(CNC(=O)[C@@H]2C[C@@H](O)CN2C(=O)[C@@H](NC(=O)COCC#CC#CCOc2cc(F)c([C@@H]3c4[nH]c5ccccc5c4C[C@@H](C)N3CC(C)(C)F)c(F)c2)C(C)(C)C)cc1 [Example 50, (2S,4R)-1-((S)-2-(2-((6-(3,5-difluoro-4-((1R,3R)-2-(2-fluoro-2-methylpropyl)-3-methyl-2,3,4,9-tetrahydro-1H-pyrido[3,4-b]indol-1-yl)phenoxy)hexa-2,4-diyn-1-yl)oxy)acetamido)-3,3-dimethylbutanoyl)-4-hydroxy-N-(4-(4-methylthiazol-5-yl)benzyl)pyrrolidine-2-carboxamide] | 1.2 | 6.6 | –
Cc1ncsc1-c1ccc(CNC(=O)[C@@H]2C[C@@H](O)CN2C(=O)[C@@H](NC(=O)C(C)(C)OCCCCCCOc2cc(F)c([C@@H]3c4[nH]c5ccccc5c4C[C@@H](C)N3CC(C)(C)F)c(F)c2)C(C)(C)C)cc1 [Example 117, (2S,4R)-1-((S)-2-(2-((6-(3,5-Difluoro-4-((1R,3R)-2-(2-fluoro-2-methylpropyl)-3-methyl-2,3,4,9-tetrahydro-1H-pyrido[3,4-b]indol-1-yl)phenoxy)hexyl)oxy)-2-methylpropanamido)-3,3-dimethylbutanoyl)-4-hydroxy-N-(4-(4-methylthiazol-5-yl)benzyl)pyrrolidine-2-carboxamide] | 0.8 | 22 | –
Cc1ncsc1-c1ccc(CNC(=O)[C@@H]2C[C@@H](O)CN2C(=O)[C@@H](NC(=O)COCCCCCOc2cc(F)c([C@@H]3c4[nH]c5ccccc5c4C[C@@H](C)N3CC(F)(F)CO)c(F)c2)C(C)(C)C)cc1 [Example 70, (2S,4R)-1-((S)-2-(2-((5-(4-((1R,3R)-2-(2,2-Difluoro-3-hydroxypropyl)-3-methyl-2,3,4,9-tetrahydro-1H-pyrido[3,4-b]indol-1-yl)-3,5-difluorophenoxy)pentyl)oxy)acetamido)-3,3-dimethylbutanoyl)-4-hydroxy-N-(4-(4-methylthiazol-5-yl)benzyl)pyrrolidine-2-carboxamide] | 0.8 | 0.9 | –
Cc1ncsc1-c1ccc(CNC(=O)[C@@H]2C[C@@H](O)CN2C(=O)[C@@H](NC(=O)COCCOCCOCCOc2cc(F)c([C@@H]3c4[nH]c5ccccc5c4C[C@@H](C)N3CC(C)(C)F)c(F)c2)C(C)(C)C)cc1 [Example 38, (2S,4R)-1-((S)-2-(tert-Butyl)-14-(3,5-difluoro-4-((1R,3R)-2-(2-fluoro-2-methylpropyl)-3-methyl-2,3,4,9-tetrahydro-1H-pyrido[3,4-b]indol-1-yl)phenoxy)-4-oxo-6,9,12-trioxa-3-azatetradecanoyl)-4-hydroxy-N-(4-(4-methylthiazol-5-yl)benzyl)pyrrolidine-2-carboxamide] | 0.7 | – | ••
Cc1ncsc1-c1ccc(CNC(=O)[C@@H]2C[C@@H](O)CN2C(=O)[C@@H](NC(=O)COCCCCCN2CC(Oc3cc(F)c([C@@H]4c5[nH]c6ccccc6c5C[C@@H](C)N4CC(C)(C)F)c(F)c3)C2)C(C)(C)C)cc1 [Example 46, (2S,4R)-1-((S)-2-(2-((5-(3-(3,5-difluoro-4-((1R,3R)-2-(2-fluoro-2-methylpropyl)-3-methyl-2,3,4,9-tetrahydro-1H-pyrido[3,4-b]indol-1-yl)phenoxy)azetidin-1-yl)pentyl)oxy)acetamido)-3,3-dimethylbutanoyl)-4-hydroxy-N-(4-(4-methylthiazol-5-yl)benzyl)pyrrolidine-2-carboxamide] | 0.8 | 2 | –
Cc1ncsc1-c1ccc(CNC(=O)[C@@H]2C[C@@H](O)CN2C(=O)[C@@H](NCc2ccc(COc3cc(F)c([C@@H]4c5[nH]c6ccccc6c5C[C@@H](C)N4CC(C)(C)F)c(F)c3)cc2)C(C)(C)C)cc1 [Example 35, (2S,4R)-1-((S)-2-((4-((3,5-difluoro-4-((1R,3R)-2-(2-fluoro-2-methylpropyl)-3-methyl-2,3,4,9-tetrahydro-1H-pyrido[3,4-b]indol-1-yl)phenoxy)methyl)benzyl)amino)-3,3-dimethylbutanoyl)-4-hydroxy-N-(4-(4-methylthiazol-5-yl)benzyl)pyrrolidine-2-carboxamide] | 1 | 9.1 | –
Cc1ncsc1-c1ccc(CNC(=O)[C@@H]2C[C@@H](O)CN2C(=O)[C@@H](NC(=O)CCCN2CCN(CCCOc3cc(F)c([C@@H]4c5[nH]c6ccccc6c5C[C@@H](C)N4CC(C)(C)F)c(F)c3)CC2)C(C)(C)C)cc1 [Example 1, (2S,4R)-1-((S)-2-(4-(4-(3-(3,5-Difluoro-4-((1R,3R)-2-(2-fluoro-2-methylpropyl)-3-methyl-2,3,4,9-tetrahydro-1H-pyrido[3,4-b]indol-1-yl)phenoxy)propyl)piperazin-1-yl)butanamido)-3,3-dimethylbutanoyl)-4-hydroxy-N-(4-(4-methylthiazol-5-yl)benzyl)pyrrolidine-2-carboxamide] | 0.9 | 0.7 | –
Cc1ncsc1-c1ccc(CNC(=O)[C@@H]2C[C@@H](O)CN2C(=O)[C@@H](NC(=O)CN2CCC3(CCN(CCOc4cc(F)c([C@@H]5c6[nH]c7ccccc7c6C[C@@H](C)N5CC(C)(C)F)c(F)c4)CC3)CC2)C(C)(C)C)cc1 [Example 43, (2S,4R)-1-((S)-2-(2-(9-(2-(3,5-difluoro-4-((R,3R)-2-(2-fluoro-2-methylpropyl)-3-methyl-2,3,4,9-tetrahydro-1H-pyrido[3,4-b]indol-1-yl)phenoxy)ethyl)-3,9-diazaspiro[5.5]undecan-3-yl)acetamido)-3,3-dimethylbutanoyl)-4-hydroxy-N-(4-(4-methylthiazol-5-yl)benzyl)pyrrolidine-2-carboxamide] | 2.3 | 4.8 | –
